The text below walks through data of paper PMC8072159, “5-Bis-(2,6-difluoro-benzylidene) Cyclopentanone Acts as a Selective 11β-Hydroxysteroid Dehydrogenase one Inhibitor to Treat Diet-Induced Nonalcoholic Fatty Liver Disease in Mice” (Frontiers in Pharmacology, 2021).

“Also recorded” adds a separate entry of the source.

The target of one assay is T1, 11β-HSD1 (Rattus norvegicus, UniProt P16232).
T1 construct: from tissue; host or cells: liver microsomes of male Sprague Dawley rats, prepared in house
Kind of assay: 11β-HSD1 activity in intact rat Leydig cells. In kind it is cell-based. The note with it: read-out: IC50 rat Leydig cell 11β-HSD1. The procedure: Isolation of Rat Adult Leydig Cells
Leydig cells were isolated as previously described ([Ge et al., 2006]). Briefly, after a week of adjustment, eighteen 35-day-old Sprague Dawley rats were killed by asphyxiation with carbon dioxide (CO2). The testis was removed. The testis was perfused with collagenase solution through the testicular artery. The testis was digested with collagenase and DNase for 15 min, and the digested cells were filtered with nylon mesh, and the cells were separated under a Percoll gradient. The cells with density of 1.070–1.088 g/ml were collected and washed. The purity of the Leydig cell fraction was evaluated by histochemical staining of 3β-hydroxysteroid dehydrogenase using 0.4 mM etiocholanolone as a steroid substrate and 2 mM NAD + as a cofactor and tetranitroblue tetrazolium as the H^+ acceptor as previously described ([Payne et al., 1980]). More than 95% of Leydig cells are strongly stained. […] In brief, an aliquot of 10^5 cells/ml in a 0.5 ml test tube was mixed with 0.1 ml of 0.4% trypan blue at room temperature for 5 min and the cells were then loaded into a hemocytometer for counting, and the numbers of non-viable (staining) and viable (not stained) cells were counted. Viability was calculated as the percentage of viable cells divided by the total number of cells, and the viability of Leydig cells (intact Leydig cells) was over 99%. […]

In a further assay the target is T2, 11β-HSD2 (Homo sapiens, UniProt P80365).
T2 construct: purchased Gentest (Woburn, MA); host or cells: human kidney microsomes (tissue)
T2 sequence (P80365 1-405): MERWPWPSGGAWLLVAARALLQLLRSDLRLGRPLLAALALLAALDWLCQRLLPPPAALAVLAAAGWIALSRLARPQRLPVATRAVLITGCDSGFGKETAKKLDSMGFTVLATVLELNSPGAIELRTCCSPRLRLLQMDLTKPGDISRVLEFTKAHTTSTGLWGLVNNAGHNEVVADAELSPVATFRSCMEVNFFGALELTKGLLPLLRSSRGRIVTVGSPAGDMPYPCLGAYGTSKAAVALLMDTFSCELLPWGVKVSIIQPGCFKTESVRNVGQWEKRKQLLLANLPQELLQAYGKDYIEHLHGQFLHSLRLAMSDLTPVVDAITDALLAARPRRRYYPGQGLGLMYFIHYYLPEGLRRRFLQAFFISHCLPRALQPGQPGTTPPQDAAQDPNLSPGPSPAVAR
Put plainly: 11β-HSD2 activity in human kidney microsomes. The note with it: 100 μM. Format: biochemical. The procedure: Measurement of 11β-HSD2 Activity in Rat, Mouse, and Human Kidney Microsomes
The 11β-HSD2 assay was based on rat, mouse, and human kidney microsomes, as previously described ([Ge et al., 2005]). In brief, the 11β-HSD2 activity assay tube contained 25 nM substrate (cortisol for humans, CORT for rats and mice). Renal microsomes (10 μg) were incubated with substrate and 0.2 mM NAD^+ for 30 min. Other procedures were described above. The percentage conversion of cortisol to cortisone (humans) or CORT to 11DHC (rats and mice) was calculated by dividing the radioactive count of an 11keto-steroid product by the total count associated with both substrate and product.

T1 sequence (P16232 whole entry): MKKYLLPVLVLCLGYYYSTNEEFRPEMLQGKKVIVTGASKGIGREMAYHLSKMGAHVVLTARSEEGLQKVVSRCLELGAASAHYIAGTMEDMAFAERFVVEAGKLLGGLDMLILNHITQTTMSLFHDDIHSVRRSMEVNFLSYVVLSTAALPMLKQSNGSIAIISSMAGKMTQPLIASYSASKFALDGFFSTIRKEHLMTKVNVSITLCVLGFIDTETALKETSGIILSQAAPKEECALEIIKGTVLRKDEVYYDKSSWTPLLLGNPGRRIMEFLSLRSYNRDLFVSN

`O=C1/C(=C/c2c(F)cccc2F)CC/C1=C\c1c(F)cccc1F` [WZS08, (2E,5E)-2,5-bis(2,6-difluorobenzylidene) Cyclopentanone]: at 11β-HSD1, the IC50 stood at 170 ± 3.8 nM. Moreover, the “effect on 11β-HSD2 activity, human” value at 11β-HSD2 is “did not affect; also recorded: almost no effect”.

What is called IC50 is the midpoint of a concentration-inhibition curve.
